Legend:
Experiment in all cases: radiometric filter-binding kinase assay, Kinase HotSpot
Conditions in all cases: compound 0.5 µM; ATP 10 µM
AURKA (human) = AURKA (human) (UniProt O14965)
AURKC (human) = AURKC (human) (UniProt Q9UQB9)
BRAF (human) = BRAF (human) (UniProt P15056)
CAMK2A (human) = CAMK2A (human) (UniProt Q9UQM7)
CDC42BPA (human) = CDC42BPA (human) (UniProt Q5VT25)
CDK2 CCNE1 (human) = CDK2 CCNE1 (human) (UniProt P24941+P24864)
CDK4 CCND3 (human) = CDK4 CCND3 (human) (UniProt P30281+P11802)
Sequence of CDK4 CCND3 (human) (P11802 whole entry, looked up): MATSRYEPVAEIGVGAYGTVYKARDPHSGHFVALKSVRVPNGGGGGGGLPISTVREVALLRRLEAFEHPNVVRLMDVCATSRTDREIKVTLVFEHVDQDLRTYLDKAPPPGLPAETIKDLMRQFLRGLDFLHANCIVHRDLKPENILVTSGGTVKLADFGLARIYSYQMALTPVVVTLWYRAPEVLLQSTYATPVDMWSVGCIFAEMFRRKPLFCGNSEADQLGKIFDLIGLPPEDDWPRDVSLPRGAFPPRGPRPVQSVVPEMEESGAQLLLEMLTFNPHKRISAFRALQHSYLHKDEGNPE
Sequence of CDK4 CCND3 (human) (P30281 whole entry, looked up): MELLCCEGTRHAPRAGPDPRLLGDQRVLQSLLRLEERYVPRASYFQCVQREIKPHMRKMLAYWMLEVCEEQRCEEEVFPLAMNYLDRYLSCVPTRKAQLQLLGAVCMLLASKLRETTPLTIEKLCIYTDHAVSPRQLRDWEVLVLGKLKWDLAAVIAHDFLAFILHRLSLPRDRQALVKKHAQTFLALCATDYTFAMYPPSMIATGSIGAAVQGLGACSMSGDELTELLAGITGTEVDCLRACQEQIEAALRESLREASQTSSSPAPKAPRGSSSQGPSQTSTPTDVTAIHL

CDK5 CDK5R1 p25 (human) = CDK5 CDK5R1 p25 (human) (UniProt Q00535+Q15078)
CSK (human) = CSK (human) (UniProt P41240)
CSNK1D (human) = CSNK1D (human) (UniProt P48730)
Sequence of CSNK1D (human) (P48730 whole entry, looked up): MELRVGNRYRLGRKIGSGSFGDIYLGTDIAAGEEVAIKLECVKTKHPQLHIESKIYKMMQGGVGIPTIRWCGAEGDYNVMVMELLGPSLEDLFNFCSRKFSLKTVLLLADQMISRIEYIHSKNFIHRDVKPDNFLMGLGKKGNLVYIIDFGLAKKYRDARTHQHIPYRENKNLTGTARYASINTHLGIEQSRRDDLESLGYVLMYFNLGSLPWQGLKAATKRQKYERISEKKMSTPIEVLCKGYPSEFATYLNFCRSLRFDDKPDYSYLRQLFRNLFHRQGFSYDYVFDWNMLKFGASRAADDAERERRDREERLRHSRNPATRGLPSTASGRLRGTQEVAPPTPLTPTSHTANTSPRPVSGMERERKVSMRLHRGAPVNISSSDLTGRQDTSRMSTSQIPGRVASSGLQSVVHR

CSNK1G3 (human) = CSNK1G3 (human) (UniProt Q9Y6M4)
Sequence of CSNK1G3 (human) (Q9Y6M4 whole entry, looked up): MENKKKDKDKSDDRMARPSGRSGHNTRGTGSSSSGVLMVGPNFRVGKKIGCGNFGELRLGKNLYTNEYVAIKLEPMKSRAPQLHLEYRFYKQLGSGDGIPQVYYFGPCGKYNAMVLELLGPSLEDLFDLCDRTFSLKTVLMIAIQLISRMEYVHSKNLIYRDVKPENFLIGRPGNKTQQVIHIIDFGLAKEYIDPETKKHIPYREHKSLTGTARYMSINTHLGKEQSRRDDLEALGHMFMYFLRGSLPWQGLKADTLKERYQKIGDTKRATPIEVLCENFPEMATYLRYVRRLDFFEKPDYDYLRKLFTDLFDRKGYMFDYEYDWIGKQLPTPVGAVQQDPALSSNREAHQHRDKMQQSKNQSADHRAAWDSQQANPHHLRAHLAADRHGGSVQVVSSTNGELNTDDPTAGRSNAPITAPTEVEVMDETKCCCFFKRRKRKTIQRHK

DSTYK (human) = DSTYK (human) (UniProt Q6XUX3)
EPHB1 (human) = EPHB1 (human) (UniProt P54762)
EPHB2 (human) = EPHB2 (human) (UniProt P29323)
FLT3 (human) = FLT3 (human) (UniProt P36888)
Sequence of FLT3 (human) (P36888 whole entry, looked up): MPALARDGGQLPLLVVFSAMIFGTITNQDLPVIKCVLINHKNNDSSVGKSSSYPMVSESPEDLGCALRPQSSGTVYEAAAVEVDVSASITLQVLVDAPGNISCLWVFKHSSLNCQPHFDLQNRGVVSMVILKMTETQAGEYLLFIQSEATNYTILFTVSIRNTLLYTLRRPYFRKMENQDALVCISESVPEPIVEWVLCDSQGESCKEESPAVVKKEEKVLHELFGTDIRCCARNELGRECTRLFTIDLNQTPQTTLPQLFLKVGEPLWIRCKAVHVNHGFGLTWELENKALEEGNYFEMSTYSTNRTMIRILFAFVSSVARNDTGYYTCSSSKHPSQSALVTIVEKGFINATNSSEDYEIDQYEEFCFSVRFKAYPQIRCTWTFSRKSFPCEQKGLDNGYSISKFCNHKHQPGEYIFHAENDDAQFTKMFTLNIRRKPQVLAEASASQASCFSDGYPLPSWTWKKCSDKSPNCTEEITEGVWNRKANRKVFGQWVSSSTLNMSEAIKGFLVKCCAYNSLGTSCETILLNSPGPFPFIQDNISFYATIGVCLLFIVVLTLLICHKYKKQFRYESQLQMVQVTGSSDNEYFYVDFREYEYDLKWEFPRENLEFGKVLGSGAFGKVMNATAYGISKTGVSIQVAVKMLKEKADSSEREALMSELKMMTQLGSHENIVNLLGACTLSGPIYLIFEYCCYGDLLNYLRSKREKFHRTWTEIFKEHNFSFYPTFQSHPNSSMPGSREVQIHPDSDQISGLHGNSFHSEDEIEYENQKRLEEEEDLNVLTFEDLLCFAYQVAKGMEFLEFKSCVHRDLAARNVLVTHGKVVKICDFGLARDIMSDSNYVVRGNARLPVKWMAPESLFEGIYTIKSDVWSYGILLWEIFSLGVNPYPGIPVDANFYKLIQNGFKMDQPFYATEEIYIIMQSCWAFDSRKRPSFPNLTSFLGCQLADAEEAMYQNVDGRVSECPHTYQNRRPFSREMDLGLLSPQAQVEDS

GSG2 (human) = GSG2 (human) (UniProt Q8TF76)
Sequence of GSG2 (human) (Q8TF76 whole entry, looked up): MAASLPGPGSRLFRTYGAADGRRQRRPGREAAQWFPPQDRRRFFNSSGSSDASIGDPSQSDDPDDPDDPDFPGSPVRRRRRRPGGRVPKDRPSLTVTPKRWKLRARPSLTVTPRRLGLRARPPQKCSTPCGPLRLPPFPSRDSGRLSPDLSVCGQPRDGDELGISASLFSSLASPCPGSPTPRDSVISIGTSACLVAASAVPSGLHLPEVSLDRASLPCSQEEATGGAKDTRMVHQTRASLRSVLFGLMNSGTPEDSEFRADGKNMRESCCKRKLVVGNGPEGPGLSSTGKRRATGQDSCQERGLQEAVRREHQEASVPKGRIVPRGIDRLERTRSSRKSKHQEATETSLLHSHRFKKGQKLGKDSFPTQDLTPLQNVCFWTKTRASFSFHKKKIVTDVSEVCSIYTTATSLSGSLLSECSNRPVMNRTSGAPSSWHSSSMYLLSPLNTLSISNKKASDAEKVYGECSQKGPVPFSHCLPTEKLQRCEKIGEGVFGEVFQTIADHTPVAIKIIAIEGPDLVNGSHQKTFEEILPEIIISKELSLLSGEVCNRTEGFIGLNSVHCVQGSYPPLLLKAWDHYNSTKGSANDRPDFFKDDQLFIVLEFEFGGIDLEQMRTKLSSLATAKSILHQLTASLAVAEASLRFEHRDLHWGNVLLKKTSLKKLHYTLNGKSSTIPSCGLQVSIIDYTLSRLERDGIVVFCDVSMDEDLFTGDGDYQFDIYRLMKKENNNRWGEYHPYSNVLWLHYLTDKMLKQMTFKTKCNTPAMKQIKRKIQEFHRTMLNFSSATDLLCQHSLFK

HIPK4 (human) = HIPK4 (human) (UniProt Q8NE63)
INSR (human) = INSR (human) (UniProt P06213)
ITK (human) = ITK (human) (UniProt Q08881)
Sequence of ITK (human) (Q08881 whole entry, looked up): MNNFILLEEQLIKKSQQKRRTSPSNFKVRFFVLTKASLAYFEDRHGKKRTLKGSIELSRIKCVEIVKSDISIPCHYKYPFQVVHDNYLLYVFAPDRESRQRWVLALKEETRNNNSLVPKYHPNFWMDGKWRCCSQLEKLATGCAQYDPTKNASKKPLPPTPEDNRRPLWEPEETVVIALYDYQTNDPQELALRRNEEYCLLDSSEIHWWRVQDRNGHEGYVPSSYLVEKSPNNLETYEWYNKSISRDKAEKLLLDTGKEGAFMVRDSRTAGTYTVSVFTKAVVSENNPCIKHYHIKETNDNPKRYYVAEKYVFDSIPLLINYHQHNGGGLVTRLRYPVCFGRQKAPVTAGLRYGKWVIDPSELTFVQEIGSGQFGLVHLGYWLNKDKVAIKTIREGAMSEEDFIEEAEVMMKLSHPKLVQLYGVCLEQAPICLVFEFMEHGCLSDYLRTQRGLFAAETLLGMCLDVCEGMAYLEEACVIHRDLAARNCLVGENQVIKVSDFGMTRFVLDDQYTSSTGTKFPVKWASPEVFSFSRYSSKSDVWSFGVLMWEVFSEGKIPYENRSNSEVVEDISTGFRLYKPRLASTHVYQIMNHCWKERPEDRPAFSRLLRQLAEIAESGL

JAK3 JH1 JH2 (human) = JAK3 JH1 JH2 (human) (UniProt P52333)
LIMK1 (human) = LIMK1 (human) (UniProt P53667)
LRRK2 (human) = LRRK2 (human) (UniProt Q5S007)
MAP3K3 (human) = MAP3K3 (human) (UniProt Q99759)
MAP3K8 (human) = MAP3K8 (human) (UniProt P41279)
MAP3K9 (human) = MAP3K9 (human) (UniProt P80192)
Sequence of MAP3K9 (human) (P80192 whole entry, looked up): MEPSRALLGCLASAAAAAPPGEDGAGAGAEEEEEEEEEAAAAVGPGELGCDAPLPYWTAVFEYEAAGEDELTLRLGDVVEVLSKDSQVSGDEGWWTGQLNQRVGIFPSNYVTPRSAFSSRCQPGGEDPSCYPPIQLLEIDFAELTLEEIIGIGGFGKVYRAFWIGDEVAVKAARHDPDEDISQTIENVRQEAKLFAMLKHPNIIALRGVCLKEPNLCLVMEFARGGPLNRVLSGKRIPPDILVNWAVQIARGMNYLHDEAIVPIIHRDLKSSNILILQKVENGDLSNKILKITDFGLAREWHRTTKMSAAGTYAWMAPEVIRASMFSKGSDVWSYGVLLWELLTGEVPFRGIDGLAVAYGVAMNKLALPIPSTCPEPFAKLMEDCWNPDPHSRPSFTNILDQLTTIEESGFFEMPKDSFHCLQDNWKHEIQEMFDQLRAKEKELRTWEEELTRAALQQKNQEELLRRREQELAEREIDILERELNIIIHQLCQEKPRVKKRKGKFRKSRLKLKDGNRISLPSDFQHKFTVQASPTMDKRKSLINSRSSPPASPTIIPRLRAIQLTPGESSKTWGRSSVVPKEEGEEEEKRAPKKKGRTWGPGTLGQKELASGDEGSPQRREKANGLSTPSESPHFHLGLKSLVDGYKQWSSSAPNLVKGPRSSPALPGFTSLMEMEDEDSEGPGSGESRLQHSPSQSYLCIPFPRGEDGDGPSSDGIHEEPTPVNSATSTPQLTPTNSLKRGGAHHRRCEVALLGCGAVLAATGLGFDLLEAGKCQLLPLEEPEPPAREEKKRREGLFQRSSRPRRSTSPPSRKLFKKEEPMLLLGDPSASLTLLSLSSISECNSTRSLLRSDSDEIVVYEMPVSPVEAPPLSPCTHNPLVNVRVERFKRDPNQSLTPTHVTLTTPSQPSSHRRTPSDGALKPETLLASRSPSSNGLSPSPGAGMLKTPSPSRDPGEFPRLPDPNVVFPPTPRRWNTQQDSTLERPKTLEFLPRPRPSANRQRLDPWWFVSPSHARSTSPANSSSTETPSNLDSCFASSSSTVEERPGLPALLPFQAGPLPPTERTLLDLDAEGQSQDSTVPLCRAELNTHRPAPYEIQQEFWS

MAPK8 (human) = MAPK8 (human) (UniProt P45983)
MARK1 (human) = MARK1 (human) (UniProt Q9P0L2)
MARK3 (human) = MARK3 (human) (UniProt P27448)
MATK (human) = MATK (human) (UniProt P42679)
MELK (human) = MELK (human) (UniProt Q14680)
MUSK (human) = MUSK (human) (UniProt O15146)
NUAK1 (human) = NUAK1 (human) (UniProt O60285)
PAK6 (human) = PAK6 (human) (UniProt Q9NQU5)
PAK7 (human) = PAK7 (human) (UniProt Q9P286)
PIM3 (human) = PIM3 (human) (UniProt Q86V86)
PKN1 (human) = PKN1 (human) (UniProt Q16512)
SGK3 (human) = SGK3 (human) (UniProt Q96BR1)
STK10 (human) = STK10 (human) (UniProt O94804)
STK17A (human) = STK17A (human) (UniProt Q9UEE5)
TGFBR1 (human) = TGFBR1 (human) (UniProt P36897)
ULK2 (human) = ULK2 (human) (UniProt Q8IYT8)

## CC#CC(=O)Nc1cc2c(Nc3ccc(F)c(Cl)c3)ncnc2cn1
AURKA (human)
  residual activity: 96.5%
AURKC (human)
  residual activity: 95.9%
BRAF (human)
  residual activity: 82.1%
CAMK2A (human)
  residual activity: 108%
CDC42BPA (human)
  residual activity: 93.1%
CDK2 CCNE1 (human)
  residual activity: 98.1%
CDK4 CCND3 (human)
  residual activity: 105%
CDK5 CDK5R1 p25 (human)
  residual activity: 99.2%
CSK (human)
  residual activity: 100%
CSNK1D (human)
  residual activity: 99.3%
CSNK1G3 (human)
  residual activity: 111%
DSTYK (human)
  residual activity: 91.1%
EPHB1 (human)
  residual activity: 92%
EPHB2 (human)
  residual activity: 80.9%
FLT3 (human)
  residual activity: 92.1%
GSG2 (human)
  residual activity: 101%
HIPK4 (human)
  residual activity: 99.7%
INSR (human)
  residual activity: 99.6%
ITK (human)
  residual activity: 76.3%
JAK3 JH1 JH2 (human)
  residual activity: -0.181%
LIMK1 (human)
  residual activity: 84.2%
LRRK2 (human)
  residual activity: 92.3%
MAP3K3 (human)
  residual activity: 107%
MAP3K8 (human)
  residual activity: 94.2%
MAP3K9 (human)
  residual activity: 95.8%
MAPK8 (human)
  residual activity: 98.9%
MARK1 (human)
  residual activity: 98.2%
MARK3 (human)
  residual activity: 107%
MATK (human)
  residual activity: 95.8%
MELK (human)
  residual activity: 101%
MUSK (human)
  residual activity: 79.6%
NUAK1 (human)
  residual activity: 98.1%
PAK6 (human)
  residual activity: 96.9%
PAK7 (human)
  residual activity: 102%
PIM3 (human)
  residual activity: 89.1%
PKN1 (human)
  residual activity: 101%
SGK3 (human)
  residual activity: 100%
STK10 (human)
  residual activity: 72.6%
STK17A (human)
  residual activity: 92.9%
TGFBR1 (human)
  residual activity: 98.7%
ULK2 (human)
  residual activity: 96.7%

Reference: the kinase profiling compilation of Christmann-Franck et al. (2016)
